According to PMC2726796 (Journal of the American Chemical Society, 2008):

How the values were obtained:
KtzS = biological target: T1, KtzS (Kutzneria sp. 744, UniProt A8CF73); test: flavin reductase activity of purified enzyme; assay type: biochemical
T1 sequence (A8CF73 1-174): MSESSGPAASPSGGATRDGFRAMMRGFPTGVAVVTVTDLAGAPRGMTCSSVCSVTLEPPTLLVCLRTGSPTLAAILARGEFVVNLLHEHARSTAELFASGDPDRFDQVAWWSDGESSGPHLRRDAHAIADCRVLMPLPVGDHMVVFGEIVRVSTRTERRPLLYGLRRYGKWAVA

[1] = substrate: N[C@@H](Cc1c[nH]c2ccccc12)C(=O)O; test: coupled halogenation assay with flavin reductase; assay type: biochemical, Kutzneria sp. 744; details: FAD, NADH, excess KtzS or SsuE, chloride, O2
[2] = substrate: N[C@@H](Cc1c[nH]c2c(Cl)cccc12)C(=O)O; test: coupled halogenation assay with flavin reductase; assay type: biochemical, Kutzneria sp. 744; details: FAD, NADH, excess KtzS or SsuE, chloride, O2

Molecule: Cc1cc2nc3c(=O)[nH]c(=O)nc-3n(C[C@H](O)[C@H](O)[C@H](O)COP(=O)(O)OP(=O)(O)OC[C@H]3O[C@@H](n4cnc5c(N)ncnc54)[C@H](O)[C@@H]3O)c2cc1C [FAD]
- flavin reductase activity of purified enzyme (KtzS; NADH as reductant): shown to be an NADH-utilizing FAD reductase

Molecule: NC(=O)C1=CN([C@@H]2O[C@H](COP(=O)(O)OP(=O)(O)OC[C@H]3O[C@@H](n4cnc5c(N)ncnc54)[C@H](O)[C@@H]3O)[C@@H](O)[C@H]2O)C=CC1 [NADH]
- flavin reductase activity of purified enzyme (KtzS; FAD as acceptor): shown to be an NADH-utilizing FAD reductase

B1: KtzR (Kutzneria sp. 744) (protein)
chain: MVIVGGGTAGWMTAAYLKTAFGDRLSITVVESSRIGTIGVGEATFSDIQHFFQFLNLREQDWMPACNATYKLGIRFENWRHVGHHFYQPFEQIRPVYGFPLTDWWLHDAPTDRFDTDCFVMPNLCEAGRSPRHLDGTLADEDFVEEGDELANRTMSEHQGKSQFPYAYHFEAALLAKFLTGYAVDRGVEHVVDDVLDVRLDQRGWIEHVVTAEHGEIHGDLFVDCTGFRGLLLNKALGVPFVSYQDTLPNDSAVALQVPLDMQRRGIVPNTTATAREAGWIWTIPLFGRVGTGYVYAKDYLSPEEAERTLREFVGPAAADVEANHIRMRIGRSQESWRNNCVAIGLSSGFVEPLESTGIFFIHHAIEQLVKHFPAADWNPKSRDMYNSAVAHVMDGIREFLVIHYRGAARADNQYWRDTKTRPLPDGLAERIECWQTQLPDTETIYPYYHGLPPYSYMCILMGGGAIRTPASAALALTDQGAAQKEFAAVRDRAAQLRDTLPSHYEYLARMRGLDV
- Km [1]: 808 µM
- Km [2]: 114 µM
